Assay results published in patent US9452981B2, “Pyroglutamic acid esters with improved biodegradability” (Clariant Produkte (Deutschland) GmbH, priority 2005, dated 2016).

Assay: Kinetic gas hydrate inhibition test in stirred steel autoclave
Conditions: 5000 ppm based on the water phase; for Tind (time from attainment of 4° C. until the first gas absorption): distilled water and gas 20:80, 50 bar natural gas; for Tagg (time until the torque rises): distilled water and gas 20:80, 50 bar natural gas, 4° C.
Procedure: To investigate the inhibiting action of the polyesters, a stirred steel autoclave with temperature control, pressure and torque sensor with capacity 450 ml was used. For investigations of kinetic inhibition, the autoclave was filled with distilled water and gas in a volume ratio of 20:80; for investigations of agglomerate inhibition, condensate was additionally added. Finally, 50 bar of natural gas were injected. […] At first, a pressure decrease corresponding to the thermal compression of the gas is observed. When the formation of gas hydrate nuclei occurs during the cooling time, the pressure measured falls, and a rise in the torque measured and a slight increase, in the temperature are observed. Without inhibitors, further growth and increasing agglomeration of the hydrate nuclei lead rapidly to a further rise in the torque. When the mixture is heated, the gas hydrates decompose, so that the starting state of the experimental series is attained. The measure used for the inhibiting action of the polymer is the time from the attainment of the minimum temperature of 4° C. until the first gas absorption (Tind) or the time until the torque rises (Tagg). Long induction times or agglomeration times indicate an effect as a kinetic inhibitor. The torque measured in the autoclave serves, in contrast, as a parameter for the agglomeration of the hydrate crystals. […] Composition of the natural gas used: methane 84.8%, ethane 9.2%, propane 2.6%, butane 0.9%, carbon dioxide 1.6%, nitrogen 0.9%. The comparative substance used was a commercially available gas hydrate inhibitor based on polyvinylpyrrolidone. The dosage in all tests was 5000 ppm based on the water phase.

| Structure (SMILES) | Tind (time from attainment of 4° C. until the first gas absorption) [h] | Tagg (time until the torque rises) [h] |
| --- | --- | --- |
| O=C1CC[C@@H](C(=O)OCCOCCOCCOC(=O)[C@@H]2CCC(=O)N2)N1 [Example 2, triethylene glycol di(pyroglutamate)] | 7.3 | 7.4 |
| O=C1CC[C@@H](C(=O)OCCOCCOCCOC(=O)[C@@H]2CCC(=O)N2)N1 [Example 1, triethylene glycol di(pyroglutamate)] | 6.9 | 7.2 |
